Earlier results, collected in patent US20080038403A1, “WEIGHT MANAGEMENT SYSTEM FOR OBESE ANIMALS” (MARS INCORPORATED, priority 2002, published 2008).

What was measured:
[1] = dietary consumption
[2] = dietary consumption; remark: listed apart in the source

Question: Which results are given for 1,3-diacylglycerol?
Answer: body weight [1]: decreases; regional fat deposition [1]: decreases; serum cholesterol levels [2]: lowers; serum triglyceride levels [2]: lowers
